{
  "source": "patent US20240139211A1",
  "about": "“METHODS AND COMPOSITIONS FOR TREATING AMYOTROPHIC LATERAL SCLEROSIS” (Amylyx Pharmaceuticals, Inc., priority 2022, published 2024)",
  "key": {"[1]": {"assay": "Rat drug-drug interaction study TDF + AMX0035: urine recovery", "assay_type": "in vivo", "settings": "male, Sprague-Dawley, rat, in vivo", "description": "Total urine recovery data for Tenofovir, TDF, and PB was calculated for the 24 hour collection period on Days 1 and 5. […] The reported urine recovery data included amount recovered (ng) and percent recovered (%) for […]. Individual and mean Tenofovir, TDF, and PB urine recovery data were presented with SD, reported to three significant figures, and CV %, reported to one decimal place."}, "OAT1": {"molecular_target": "T1, OAT1 (Homo sapiens, UniProt Q4U2R8)", "T1 sequence (Q4U2R8 1-563)": "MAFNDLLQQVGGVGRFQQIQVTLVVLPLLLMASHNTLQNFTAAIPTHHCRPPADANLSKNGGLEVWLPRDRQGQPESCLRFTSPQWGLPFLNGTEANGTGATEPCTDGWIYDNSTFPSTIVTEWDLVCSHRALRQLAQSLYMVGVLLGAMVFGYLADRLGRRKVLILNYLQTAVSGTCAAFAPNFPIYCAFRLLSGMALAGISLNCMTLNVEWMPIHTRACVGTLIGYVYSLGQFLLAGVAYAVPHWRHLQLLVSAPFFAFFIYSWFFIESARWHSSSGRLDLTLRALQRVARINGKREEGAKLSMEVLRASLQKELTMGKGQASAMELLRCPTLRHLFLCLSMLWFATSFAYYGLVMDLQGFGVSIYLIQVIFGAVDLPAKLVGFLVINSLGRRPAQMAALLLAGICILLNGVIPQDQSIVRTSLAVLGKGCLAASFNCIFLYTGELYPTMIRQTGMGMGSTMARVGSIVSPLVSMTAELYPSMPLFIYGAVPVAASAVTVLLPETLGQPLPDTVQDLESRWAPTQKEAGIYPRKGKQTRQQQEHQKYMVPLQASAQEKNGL", "assay": "in vitro"}, "hrCYP2D6": {"molecular_target": "hrCYP2D6 (Homo sapiens, UniProt P10635)", "sequence (P10635 whole entry)": "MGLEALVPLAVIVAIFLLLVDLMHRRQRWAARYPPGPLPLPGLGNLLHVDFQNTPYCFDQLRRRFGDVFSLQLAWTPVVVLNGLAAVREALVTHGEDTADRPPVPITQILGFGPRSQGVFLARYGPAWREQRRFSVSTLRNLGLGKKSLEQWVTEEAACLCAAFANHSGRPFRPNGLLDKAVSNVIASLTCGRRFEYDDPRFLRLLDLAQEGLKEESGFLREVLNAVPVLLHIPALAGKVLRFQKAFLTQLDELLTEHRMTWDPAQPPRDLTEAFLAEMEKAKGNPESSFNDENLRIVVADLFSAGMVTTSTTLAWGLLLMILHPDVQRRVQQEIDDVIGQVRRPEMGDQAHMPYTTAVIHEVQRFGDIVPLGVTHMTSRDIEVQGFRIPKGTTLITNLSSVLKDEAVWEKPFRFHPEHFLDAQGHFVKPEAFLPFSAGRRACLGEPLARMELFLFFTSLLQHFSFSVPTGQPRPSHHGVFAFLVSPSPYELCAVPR", "assay": "CYP reaction phenotyping with hrCYP2D6 (% remaining)", "assay_type": "in vitro ADME", "settings": "human, 1 h, 5 µM, pH 7.4"}, "hrCYP2C19": {"molecular_target": "hrCYP2C19 (Homo sapiens, UniProt P33261)", "sequence (P33261 whole entry)": "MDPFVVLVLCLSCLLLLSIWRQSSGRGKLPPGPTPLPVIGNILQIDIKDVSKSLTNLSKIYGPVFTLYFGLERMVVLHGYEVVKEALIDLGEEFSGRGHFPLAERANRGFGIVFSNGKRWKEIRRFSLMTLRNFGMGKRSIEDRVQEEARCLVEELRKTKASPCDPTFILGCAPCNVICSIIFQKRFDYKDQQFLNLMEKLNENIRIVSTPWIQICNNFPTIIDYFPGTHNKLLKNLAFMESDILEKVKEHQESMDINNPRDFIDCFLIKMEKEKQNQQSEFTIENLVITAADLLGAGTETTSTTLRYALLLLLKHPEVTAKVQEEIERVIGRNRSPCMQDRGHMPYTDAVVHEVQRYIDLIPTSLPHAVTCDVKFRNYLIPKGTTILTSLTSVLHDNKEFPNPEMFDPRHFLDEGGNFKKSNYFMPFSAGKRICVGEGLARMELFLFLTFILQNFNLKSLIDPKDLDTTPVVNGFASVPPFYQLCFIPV", "assay": "CYP reaction phenotyping with hrCYP2C19 (% remaining)", "assay_type": "in vitro ADME", "settings": "human, 1 h, 5 µM, pH 7.4"}, "P-gp and BCRP": {"tested_on": "P-gp and BCRP", "assay": "P-gp and BCRP substrate assessment in C2BBe1 monolayers", "settings": "Caco-2", "description": "The P-gp and BCRP substrate assessment was conducted in C2BBe1 cell monolayers. […] LY was co-dosed with each dosing solution at a nominal concentration of 200 μM.\nThe cell culture medium was aspirated, and the cell monolayers were rinsed once with HBSSg_7.4. […] For receiver samples, aliquots (300 μL) were taken at pre-selected time points. […] For donor samples, aliquots (50 μL) were taken at pre-selected time points without replacement."}, "hrCYP2C9": {"molecular_target": "hrCYP2C9 (Homo sapiens, UniProt P11712)", "sequence (P11712 whole entry)": "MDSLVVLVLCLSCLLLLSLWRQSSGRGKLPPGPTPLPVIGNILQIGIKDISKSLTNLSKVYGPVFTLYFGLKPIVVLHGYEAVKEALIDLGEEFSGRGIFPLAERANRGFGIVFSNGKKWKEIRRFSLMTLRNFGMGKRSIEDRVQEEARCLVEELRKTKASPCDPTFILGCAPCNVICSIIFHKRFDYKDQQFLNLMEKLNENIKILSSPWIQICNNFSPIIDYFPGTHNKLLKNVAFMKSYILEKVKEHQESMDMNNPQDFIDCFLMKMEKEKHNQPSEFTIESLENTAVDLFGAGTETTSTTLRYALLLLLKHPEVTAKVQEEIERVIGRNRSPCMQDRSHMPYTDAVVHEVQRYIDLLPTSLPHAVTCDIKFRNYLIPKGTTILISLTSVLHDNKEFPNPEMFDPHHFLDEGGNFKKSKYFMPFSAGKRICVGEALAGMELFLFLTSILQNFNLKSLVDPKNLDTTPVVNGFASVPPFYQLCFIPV", "assay": "CYP reaction phenotyping with hrCYP2C9 (% remaining)", "assay_type": "in vitro ADME", "settings": "human, 1 h, 5 µM, pH 7.4"}, "[2]": {"molecular_target": "T2, CYPs in human liver microsomes (HLM) (Homo sapiens, UniProt P05177)", "T2 sequence (P05177 1-516)": "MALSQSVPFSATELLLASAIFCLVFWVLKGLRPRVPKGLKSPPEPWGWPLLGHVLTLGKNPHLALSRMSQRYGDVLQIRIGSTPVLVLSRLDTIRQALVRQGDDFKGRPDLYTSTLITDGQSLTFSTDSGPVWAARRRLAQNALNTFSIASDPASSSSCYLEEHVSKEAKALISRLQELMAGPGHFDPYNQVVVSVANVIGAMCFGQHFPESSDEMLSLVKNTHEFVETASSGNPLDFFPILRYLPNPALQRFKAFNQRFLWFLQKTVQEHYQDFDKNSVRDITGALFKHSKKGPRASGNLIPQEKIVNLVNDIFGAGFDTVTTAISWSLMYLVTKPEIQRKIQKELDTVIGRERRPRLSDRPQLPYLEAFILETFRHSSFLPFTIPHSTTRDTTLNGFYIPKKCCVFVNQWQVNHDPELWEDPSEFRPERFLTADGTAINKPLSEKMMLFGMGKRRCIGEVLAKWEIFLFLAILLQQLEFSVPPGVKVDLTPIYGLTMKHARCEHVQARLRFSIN", "assay": "CYP reaction phenotyping in HLM with chemical inhibitors (% remaining)", "settings": "+NADPH +furafylline (CYP1A2), pre-incubated"}, "[3]": {"molecular_target": "CYPs in human liver microsomes (HLM) (Homo sapiens, UniProt P11712)", "sequence (P11712 whole entry)": "as the sequence (P11712 whole entry) above", "assay": "CYP reaction phenotyping in HLM with chemical inhibitors (% remaining)", "settings": "+NADPH +sulfaphenazole (CYP2C9)"}, "[4]": {"tested_on": "CYPs in human liver microsomes (HLM)", "assay": "CYP reaction phenotyping in HLM with chemical inhibitors (% remaining)"}, "[5]": {"molecular_target": "CYPs in human liver microsomes (HLM) (Homo sapiens, UniProt P33261)", "sequence (P33261 whole entry)": "as the sequence (P33261 whole entry) above", "assay": "CYP reaction phenotyping in HLM with chemical inhibitors (% remaining)", "settings": "+NADPH +N3B (CYP2C19)"}},
  "data": [
    {"molecule": "O=C(O)CCCc1ccccc1", "note": "[PB, sodium phenylbutyrate]", "values": [
      {"measurement": "Urine concentrations", "setting": "[1]", "result": "Urine concentrations for PB analysis in all animals on Day 1, for TUDCA analysis in all animals on Days 1 and 5, and for TDF analysis in two animals on Day 1 and one animal on Day 5 were BLQ (<20 mg/mL) so no recovery data was calculated."},
      {"measurement": "potency estimated from few doses", "setting": "OAT1", "result": "< 25", "unit": "µM"},
      {"measurement": "% remaining after 60 minutes", "setting": "hrCYP2D6", "result": "greater than 90%"},
      {"measurement": "% remaining after 60 minutes", "setting": "hrCYP2C19", "result": "greater than 90%"},
      {"measurement": "P-gp or BCRP substrate", "setting": "P-gp and BCRP", "result": "neither TUDCA nor PB is P-gp or BCRP substrate"},
      {"measurement": "% remaining after 60 minutes", "setting": "hrCYP2C9", "result": "greater than 90%"},
      {"measurement": "% remaining of TA in HLM", "setting": "[2]; 5 min", "result": 116, "unit": "%"},
      {"measurement": "% remaining of TA in HLM", "setting": "[2]; 10 min", "result": 131, "unit": "%"},
      {"measurement": "% remaining of TA in HLM", "setting": "[2]; 20 min", "result": 125, "unit": "%"},
      {"measurement": "% remaining of TA in HLM", "setting": "[2]; 30 min", "result": 127, "unit": "%"},
      {"measurement": "% remaining of TA in HLM", "setting": "[2]; 60 min", "result": 128, "unit": "%"},
      {"measurement": "% remaining of TA in HLM", "setting": "[3]; 5 min", "result": 103, "unit": "%"},
      {"measurement": "% remaining of TA in HLM", "setting": "[3]; 20 min", "result": 98.5, "unit": "%"},
      {"measurement": "% remaining of TA in HLM", "setting": "[3]; 30 min", "result": 99.6, "unit": "%"},
      {"measurement": "% remaining of TA in HLM", "setting": "[3]; 60 min", "result": 97.6, "unit": "%"},
      {"measurement": "Metabolism by the major CYPs in HLM", "setting": "[4]", "result": "neither PB nor TUDCA is metabolized"},
      {"measurement": "% remaining of TA in HLM", "setting": "[4]; +NADPH +ketoconazole (CYP3A), 60 min", "result": 90.6, "unit": "%"},
      {"measurement": "% remaining of TA in HLM", "setting": "[4]; Maximum Metabolism-1: +NADPH −inhibitor, pre-incubated, 10 min", "result": 118, "unit": "%"},
      {"measurement": "% remaining of TA in HLM", "setting": "[4]; Maximum Metabolism-1: +NADPH −inhibitor, pre-incubated, 20 min", "result": 113, "unit": "%"},
      {"measurement": "% remaining of TA in HLM", "setting": "[4]; Maximum Metabolism-1: +NADPH −inhibitor, pre-incubated, 30 min", "result": 110, "unit": "%"},
      {"measurement": "% remaining of TA in HLM", "setting": "[4]; Negative Control-1: −NADPH −inhibitor, pre-incubated, 5 min", "result": 109, "unit": "%"},
      {"measurement": "% remaining of TA in HLM", "setting": "[4]; Negative Control-1: −NADPH −inhibitor, pre-incubated, 10 min", "result": 114, "unit": "%"},
      {"measurement": "% remaining of TA in HLM", "setting": "[4]; Negative Control-1: −NADPH −inhibitor, pre-incubated, 20 min", "result": 113, "unit": "%"},
      {"measurement": "% remaining of TA in HLM", "setting": "[4]; Negative Control-1: −NADPH −inhibitor, pre-incubated, 30 min", "result": 112, "unit": "%"},
      {"measurement": "% remaining of TA in HLM", "setting": "[4]; Negative Control-1: −NADPH −inhibitor, pre-incubated, 60 min", "result": 115, "unit": "%"},
      {"measurement": "% remaining of TA in HLM", "setting": "[5]; 5 min", "result": 101, "unit": "%"},
      {"measurement": "% remaining of TA in HLM", "setting": "[5]; 20 min", "result": 101, "unit": "%"},
      {"measurement": "% remaining of TA in HLM", "setting": "[5]; 30 min", "result": 101, "unit": "%"},
      {"measurement": "% remaining of TA in HLM", "setting": "[5]; 60 min", "result": 101, "unit": "%"}
    ]}
  ]
}
